Article PMC4274187 (Bioorganic & medicinal chemistry, 2014)

Columns and labels:
[1] = biological target: dopamine transporter (DAT) (Mus musculus, UniProt Q61327); experiment: DAT binding, [125I]RTI-121, mouse striatal membranes; details: for inhibition at 10 µM: read-out: DAT % Inh.
σ1 receptors = details: read-out: apparent affinity for σ1 receptors; more recent determination; cited from earlier work
[2] = system: norepinephrine transporter; details: cited from earlier work
[3] = biological target: serotonin transporter (SERT) (Mus musculus, UniProt Q60857); experiment: SERT binding, [3H]paroxetine, mouse whole brain membranes; details: ratio of DAT and SERT Ki
serotonin transporter (SERT), sequence (Q60857 whole entry): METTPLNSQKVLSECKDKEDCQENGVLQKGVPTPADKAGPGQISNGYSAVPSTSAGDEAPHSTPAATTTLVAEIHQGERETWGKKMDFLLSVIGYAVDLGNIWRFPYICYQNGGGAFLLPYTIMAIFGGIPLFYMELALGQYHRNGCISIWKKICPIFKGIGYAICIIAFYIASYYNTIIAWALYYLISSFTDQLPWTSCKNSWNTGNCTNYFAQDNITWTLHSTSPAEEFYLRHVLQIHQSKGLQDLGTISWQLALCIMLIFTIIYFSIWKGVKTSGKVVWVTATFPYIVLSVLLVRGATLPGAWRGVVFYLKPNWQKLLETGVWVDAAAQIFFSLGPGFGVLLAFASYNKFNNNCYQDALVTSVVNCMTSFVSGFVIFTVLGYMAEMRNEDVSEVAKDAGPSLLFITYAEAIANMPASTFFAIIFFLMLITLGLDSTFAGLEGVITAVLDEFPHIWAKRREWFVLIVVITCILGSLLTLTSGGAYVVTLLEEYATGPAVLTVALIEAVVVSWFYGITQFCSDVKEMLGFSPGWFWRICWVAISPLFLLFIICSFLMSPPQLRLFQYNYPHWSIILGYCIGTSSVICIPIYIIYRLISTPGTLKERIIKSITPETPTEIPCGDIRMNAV

[4] = biological target: vesicular acetylcholine transporter; details: read-out: vesicular acetylcholine transporter Ki; secondary interaction; cited from earlier work

dopamine transporter (DAT), sequence (Q61327 whole entry): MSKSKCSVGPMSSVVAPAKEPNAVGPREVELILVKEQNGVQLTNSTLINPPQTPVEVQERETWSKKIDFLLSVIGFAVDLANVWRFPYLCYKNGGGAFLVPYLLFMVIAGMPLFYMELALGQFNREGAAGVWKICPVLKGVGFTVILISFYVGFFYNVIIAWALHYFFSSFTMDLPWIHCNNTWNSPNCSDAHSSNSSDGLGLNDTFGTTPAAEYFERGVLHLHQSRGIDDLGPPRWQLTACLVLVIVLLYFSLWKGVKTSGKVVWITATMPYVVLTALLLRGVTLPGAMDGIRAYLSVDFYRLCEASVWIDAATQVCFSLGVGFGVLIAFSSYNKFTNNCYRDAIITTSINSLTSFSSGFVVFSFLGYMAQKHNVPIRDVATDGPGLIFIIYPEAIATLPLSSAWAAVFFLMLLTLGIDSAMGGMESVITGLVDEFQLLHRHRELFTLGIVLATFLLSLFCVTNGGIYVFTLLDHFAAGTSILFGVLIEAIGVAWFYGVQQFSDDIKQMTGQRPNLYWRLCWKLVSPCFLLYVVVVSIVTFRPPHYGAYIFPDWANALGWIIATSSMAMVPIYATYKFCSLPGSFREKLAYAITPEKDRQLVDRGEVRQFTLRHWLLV

| SMILES | inhibition at 10 µM [1] | Ki [1] | further results |
| --- | --- | --- | --- |
| COc1cc(CCN2CCN(CCCc3ccccc3)CC2)ccc1OCCF [FE-SA4503] | 19% | – | – |
| Fc1ccc(C(OCCN2CCN(CCCc3ccccc3)CC2)c2ccc(F)cc2)cc1 [GBR 12909] | – | – | Ki (σ1 receptors): 50.8 nM; affinity for the norepinephrine transporter [2]: > 1000 nM |
| COc1ccc(CCN2CCN(CCCc3ccccc3)CC2)cc1OC [SA4503, 1-[2-(3,4-dimethoxyphenyl)ethyl]-4-(3-phenylpropyl)piperazine] | 23% | 12700 ± 832 nM | higher affinity for SERT over DAT [3]: 16 fold; Ki [4]: 50 nM |
| CCCOc1ccc(CCN2CCN(CCCc3ccccc3)CC2)cc1OC [compound 1, 1-(3-methoxy-4-propoxyphenethyl)-4-(3-phenylpropyl)piperazine] | – | ~2000 nM | – |
| COc1cc(CCN2CCN(CCCc3ccccc3)CC2)ccc1OCc1ccccc1 [compound 4, 1-(4-(benzyloxy)-3-methoxyphenethyl)-4-(3-phenylpropyl)piperazine] | – | – | higher DAT affinity than SA4503 ([1]; relative to parent SA4503): over 100 fold |
| c1ccc(CCCN2CCN(CCc3ccc4c(c3)OCO4)CC2)cc1 [compound 7, 1-(3,4-methylenedioxyphenethyl)-4-(3-phenylpropyl)piperazine] | – | ~2000 nM | – |
